Laboratory results reported in ChEMBL document CHEMBL6078699, “Constrained β-Hairpins Targeting the EphA4 Ligand Binding Domain” (J Med Chem, 2024).
Calls of active or inactive are those of the source. The calls are words filed in the database; no cut-off is given here. Numbered stars: 1 amine (or outer) side, 2 acyl side, 3 side chain; on linkers, the order of the positions; unused ones are H or OH. Square brackets hold non-standard residues; d marks the D form. Peptide text beside a SMILES is read from it. Azetidine3carboxylic = O=C(C1CN([*:1])C1)[*:2]; βPro(3R) = O=C([C@@H]1CCN([*:1])C1)[*:2]; βPro(3S) = O=C([C@H]1CCN([*:1])C1)[*:2]; X2 = O=C([C@H]1CCCN([*:1])C1)[*:2]; βAla = NCCC(=O)O

Legend:
[1] = molecular target: Ephrin type-A receptor 4 (Homo sapiens) (UniProt P54764); assay: Binding affinity to EphA4-LBD (unknown origin) at 40 uM by isothermal titration calorimetry
Chain of Ephrin type-A receptor 4 (Homo sapiens) (P54764 whole entry, the tested form may be a part): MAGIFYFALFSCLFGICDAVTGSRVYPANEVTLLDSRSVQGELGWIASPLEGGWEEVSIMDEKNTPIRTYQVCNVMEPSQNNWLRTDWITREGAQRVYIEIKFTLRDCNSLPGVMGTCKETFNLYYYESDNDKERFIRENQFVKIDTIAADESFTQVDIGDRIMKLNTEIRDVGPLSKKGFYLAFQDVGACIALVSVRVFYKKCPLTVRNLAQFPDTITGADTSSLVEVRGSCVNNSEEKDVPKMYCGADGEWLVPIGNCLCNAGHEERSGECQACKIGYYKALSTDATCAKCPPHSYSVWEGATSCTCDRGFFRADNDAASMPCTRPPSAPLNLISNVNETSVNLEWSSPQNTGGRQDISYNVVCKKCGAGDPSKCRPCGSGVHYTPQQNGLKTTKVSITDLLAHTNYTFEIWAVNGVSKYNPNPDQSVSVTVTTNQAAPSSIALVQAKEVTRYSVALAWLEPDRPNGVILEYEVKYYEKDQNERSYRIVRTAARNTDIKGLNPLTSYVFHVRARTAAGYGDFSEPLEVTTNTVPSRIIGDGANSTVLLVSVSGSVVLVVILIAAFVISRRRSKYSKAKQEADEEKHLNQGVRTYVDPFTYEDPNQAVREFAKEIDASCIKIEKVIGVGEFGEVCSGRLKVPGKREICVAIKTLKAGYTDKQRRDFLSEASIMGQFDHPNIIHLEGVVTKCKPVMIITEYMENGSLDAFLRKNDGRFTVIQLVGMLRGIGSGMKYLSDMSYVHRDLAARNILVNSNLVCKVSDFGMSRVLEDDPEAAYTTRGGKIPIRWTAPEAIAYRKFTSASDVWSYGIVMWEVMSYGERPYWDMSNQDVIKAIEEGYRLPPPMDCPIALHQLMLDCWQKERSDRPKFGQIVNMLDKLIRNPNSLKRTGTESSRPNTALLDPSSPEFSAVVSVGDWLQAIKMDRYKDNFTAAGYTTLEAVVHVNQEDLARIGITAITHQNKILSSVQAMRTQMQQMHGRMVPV

[2] = molecular target: Ephrin type-A receptor 4 (Mus musculus) (UniProt Q03137); assay: Induction of EphA4 phosphorylation in C57BL/6 mouse Primary cortical neuron at 1 to 10 uM incubated for 30 mins by immunoprecipitation based Western blot analysis; type: cell-based; details: dose 1-10 µM
Chain of Ephrin type-A receptor 4 (Mus musculus) (Q03137 whole entry): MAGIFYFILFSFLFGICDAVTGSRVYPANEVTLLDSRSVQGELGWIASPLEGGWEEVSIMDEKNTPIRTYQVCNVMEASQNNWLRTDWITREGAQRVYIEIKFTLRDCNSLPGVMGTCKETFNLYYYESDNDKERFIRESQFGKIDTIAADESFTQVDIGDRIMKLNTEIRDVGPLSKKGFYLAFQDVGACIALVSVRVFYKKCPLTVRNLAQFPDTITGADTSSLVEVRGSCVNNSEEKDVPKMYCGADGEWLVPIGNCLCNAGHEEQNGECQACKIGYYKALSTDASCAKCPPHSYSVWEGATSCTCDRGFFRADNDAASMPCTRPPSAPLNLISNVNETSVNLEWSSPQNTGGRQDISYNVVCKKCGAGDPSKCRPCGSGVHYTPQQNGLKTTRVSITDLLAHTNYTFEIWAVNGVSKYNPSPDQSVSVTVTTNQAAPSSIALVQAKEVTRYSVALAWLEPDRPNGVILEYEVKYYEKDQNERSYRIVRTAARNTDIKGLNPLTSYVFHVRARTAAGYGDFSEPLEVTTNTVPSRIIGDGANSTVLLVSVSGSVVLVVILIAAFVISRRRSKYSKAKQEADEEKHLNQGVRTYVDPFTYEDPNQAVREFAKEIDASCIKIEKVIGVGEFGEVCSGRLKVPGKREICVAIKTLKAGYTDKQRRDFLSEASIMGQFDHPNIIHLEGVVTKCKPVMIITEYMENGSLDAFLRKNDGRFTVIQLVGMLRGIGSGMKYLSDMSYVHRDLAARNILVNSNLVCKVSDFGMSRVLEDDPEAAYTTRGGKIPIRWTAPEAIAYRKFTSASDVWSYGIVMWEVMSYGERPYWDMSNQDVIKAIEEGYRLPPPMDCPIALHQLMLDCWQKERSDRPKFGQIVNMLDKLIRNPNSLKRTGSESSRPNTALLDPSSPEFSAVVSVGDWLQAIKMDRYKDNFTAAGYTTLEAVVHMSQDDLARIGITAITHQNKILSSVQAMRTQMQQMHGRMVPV

Row | Activity [1] | Activity [2] | SMILES
1 | inactive |  | CC(C)[C@H](NC(=O)[C@H](C)NC(=O)[C@H](Cc1ccc(O)cc1)NC(=O)[C@@H]1CCCN1C(=O)CCN)C(=O)N[C@@H](Cc1ccc(O)cc1)C(=O)N[C@@H](CCCNC(=N)N)C(=O)N1CCC[C@H](C(=O)N[C@@H](CO)C(=O)N[C@@H](Cc2c[nH]c3ccccc23)C(=O)N[C@@H](CO)C(=O)N[C@@H](C)C(N)=O)C1 (H-[βAla]PYAVYR[X2]SWSA-NH2)
2 | inactive |  | CC(C)[C@H](NC(=O)[C@H](C)NC(=O)[C@H](Cc1ccc(O)cc1)NC(=O)[C@@H]1CCCN1C(=O)CCN)C(=O)N[C@@H](Cc1ccc(O)cc1)C(=O)N[C@@H](CCCNC(=N)N)C(=O)N[C@H]1CC[C@@H]1C(=O)N[C@H](CO)C(=O)N[C@@H](Cc1c[nH]c2ccccc12)C(=O)N[C@@H](CO)C(=O)N[C@@H](C)C(N)=O
3 | inactive |  | CC(C)[C@H](NC(=O)[C@H](C)NC(=O)[C@H](Cc1ccc(O)cc1)NC(=O)[C@@H]1CCCN1C(=O)CCN)C(=O)N[C@@H](Cc1ccc(O)cc1)C(=O)N[C@@H](CCCNC(=N)N)C(=O)N1CC[C@@H]1C(=O)N[C@@H](CO)C(=O)N[C@@H](Cc1c[nH]c2ccccc12)C(=O)N[C@@H](CO)C(=O)N[C@@H](C)C(N)=O
4 |  | inactive | CC(C)[C@H](NC(=O)[C@H](CS)NC(=O)[C@H](Cc1ccc(O)cc1)NC(=O)[C@@H]1CCCN1C(=O)CCN)C(=O)N[C@@H](Cc1ccc(O)cc1)C(=O)N[C@@H](CCCNC(=N)N)C(=O)NCCC(=O)N[C@@H](CO)C(=O)N[C@@H](Cc1cc2ccccc2[nH]1)C(=O)N[C@@H](CO)C(=O)N[C@@H](CS)C(N)=O
5 | inactive |  | CC(C)[C@H](NC(=O)[C@H](C)NC(=O)[C@H](Cc1ccc(O)cc1)NC(=O)[C@@H]1CCCN1C(=O)CCN)C(=O)N[C@@H](Cc1ccc(O)cc1)C(=O)N[C@@H](CCCNC(=N)N)C(=O)N1CC[C@@H](C(=O)N[C@@H](CO)C(=O)N[C@@H](Cc2c[nH]c3ccccc23)C(=O)N[C@@H](CO)C(=O)N[C@@H](C)C(N)=O)C1 (H-[βAla]PYAVYR[βPro(3R)]SWSA-NH2)
6 | inactive |  | CC(C)[C@H](NC(=O)[C@H](C)NC(=O)[C@H](Cc1ccc(O)cc1)NC(=O)[C@@H]1CCCN1C(=O)CCN)C(=O)N[C@@H](Cc1ccc(O)cc1)C(=O)N[C@@H](CCCNC(=N)N)C(=O)N1CC[C@H]1C(=O)N[C@@H](CO)C(=O)N[C@@H](Cc1c[nH]c2ccccc12)C(=O)N[C@@H](CO)C(=O)N[C@@H](C)C(N)=O
7 | inactive |  | CC(C)[C@H](NC(=O)[C@H](C)NC(=O)[C@H](Cc1ccc(O)cc1)NC(=O)[C@@H]1CCCN1C(=O)CCN)C(=O)N[C@@H](Cc1ccc(O)cc1)C(=O)N[C@@H](CCCNC(=N)N)C(=O)N1CC[C@H](C(=O)N[C@@H](CO)C(=O)N[C@@H](Cc2c[nH]c3ccccc23)C(=O)N[C@@H](CO)C(=O)N[C@@H](C)C(N)=O)C1 (H-[βAla]PYAVYR[βPro(3S)]SWSA-NH2)
8 | inactive |  | CC(C)[C@H](NC(=O)[C@H](C)NC(=O)[C@H](Cc1ccc(O)cc1)NC(=O)[C@@H]1CCCN1C(=O)CCN)C(=O)N[C@@H](Cc1ccc(O)cc1)C(=O)N[C@@H](CCCNC(=N)N)C(=O)N1CC(C(=O)N[C@@H](CO)C(=O)N[C@@H](Cc2c[nH]c3ccccc23)C(=O)N[C@@H](CO)C(=O)N[C@@H](C)C(N)=O)C1 (H-[βAla]PYAVYR[Azetidine3carboxylic]SWSA-NH2)
